This note sets out measurements from PubChem BioAssay AID248 (DTP/NCI, 2004).

“And” between values parts separate entries of the source, which are not always exact repeats. Identical values can stand only once. Toxic doses and inconclusive results are not listed.

This experiment concerns L1210 leukemia ip in BDF1 mice, survival T/C. In words: NCI In Vivo Anticancer Drug Screen. Data for tumor model L1210 Leukemia (intraperitoneal) in B6D2F1 (BDF1) mice. To be noted: endpoint: mean survival time, higher = longer survival. In outline:
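Mice bearing the transplanted tumor received compound or vehicle. Survival of the treated group was divided by that of the vehicle-treated control group to give the ratio.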

The mark [1] stands for this setting: dose: 100.0 mg/kg/injection, schedule: Q01DX009 (ip), vehicle: carboxymethylcellulose (CMC).
The mark [2] stands for this setting: dose: 100.0 mg/kg/injection, schedule: Q04DX002 (ip), vehicle: carboxymethylcellulose (CMC).
Setting [3] is: dose: 100.0 mg/kg/injection, schedule: Q04DX003 (ip), vehicle: carboxymethylcellulose (CMC).
Setting [4] is: dose: 200.0 mg/kg/injection, schedule: Q04DX002 (ip), vehicle: carboxymethylcellulose (CMC).
Where [5] appears, read: dose: 200.0 mg/kg/injection, schedule: Q04DX003 (ip), vehicle: carboxymethylcellulose (CMC).
Setting [6] is: dose: 400.0 mg/kg/injection, schedule: Q01DX009 (ip), vehicle: carboxymethylcellulose (CMC).
Where [7] appears, read: dose: 400.0 mg/kg/injection, schedule: Q04DX002 (ip), vehicle: carboxymethylcellulose (CMC).
[8] abbreviates: dose: 100.0 mg/kg/injection, schedule: Q01DX009 (ip), vehicle: saline with Tween-80.
Where [9] appears, read: dose: 200.0 mg/kg/injection, schedule: Q01DX009 (ip), vehicle: saline with Tween-80.
Where [10] appears, read: dose: 100.0 mg/kg/injection, schedule: Q01DX009 (ip), vehicle: other.
Where [11] appears, read: dose: 50.0 mg/kg/injection, schedule: Q04DX003 (ip), vehicle: saline.
The mark [12] stands for this setting: dose: 100.0 mg/kg/injection, schedule: Q04DX003 (ip), vehicle: saline.
The mark [13] stands for this setting: dose: 200.0 mg/kg/injection, schedule: Q04DX003 (ip), vehicle: saline.
The mark [14] stands for this setting: dose: 400.0 mg/kg/injection, schedule: Q04DX003 (ip), vehicle: saline.
[15] abbreviates: dose: 75.0 mg/kg/injection, schedule: Q01DX001 (ip), vehicle: saline.
[16] abbreviates: dose: 150.0 mg/kg/injection, schedule: Q01DX001 (ip), vehicle: saline.

As to `O=C1c2ccccc2C(=O)N1CCS(=O)(=O)Cl`, the T/C runs as follows: (dose: 25.0 mg/kg/injection, schedule: Q01DX001 (ip), vehicle: carboxymethylcellulose (CMC)) 104 % of control; (dose: 25.0 mg/kg/injection, schedule: Q01DX009 (ip), vehicle: carboxymethylcellulose (CMC)) 92 % of control and 96 % of control; (dose: 50.0 mg/kg/injection, schedule: Q01DX001 (ip), vehicle: carboxymethylcellulose (CMC)) 100 % of control; (dose: 50.0 mg/kg/injection, schedule: Q01DX009 (ip), vehicle: carboxymethylcellulose (CMC)) 92 % of control and 102 % of control; (dose: 50.0 mg/kg/injection, schedule: Q04DX003 (ip), vehicle: carboxymethylcellulose (CMC)) 97 % of control and 98 % of control; (dose: 100.0 mg/kg/injection, schedule: Q01DX001 (ip), vehicle: carboxymethylcellulose (CMC)) 92 % of control and 99 % of control. Moreover, the T/C runs as follows: under setting [1], 92 % of control and 95 % of control and 89 % of control; under setting [2], 93 % of control and 97 % of control; under setting [3], 100 % of control and 113 % of control; (dose: 200.0 mg/kg/injection, schedule: Q01DX001 (ip), vehicle: carboxymethylcellulose (CMC)) 97 % of control; under setting [4], 97 % of control; under setting [5], 100 % of control and 102 % of control. The T/C was 92 % of control (dose: 400.0 mg/kg/injection, schedule: Q01DX001 (ip), vehicle: carboxymethylcellulose (CMC)); 86 % of control under setting [6]; 97 % of control and 100 % of control under setting [7].

As to `Cc1ccc(SC(=S)Sc2ccc(C)cc2)cc1`, the T/C was 91 % of control (dose: 50.0 mg/kg/injection, schedule: Q01DX009 (ip), vehicle: saline with Tween-80); 91 % of control under setting [8]; 87 % of control under setting [9].

With `O=C(Nc1ccc([N+](=O)[O-])cc1Cl)OCCCl`, the T/C runs as follows: (dose: 100.0 mg/kg/injection, schedule: Q01DX001 (ip), vehicle: saline with Tween-80) 94 % of control; under setting [8], 98 % of control; (dose: 100.0 mg/kg/injection, schedule: Q04DX002 (ip), vehicle: saline with Tween-80) 97 % of control; (dose: 100.0 mg/kg/injection, schedule: Q04DX003 (ip), vehicle: saline with Tween-80) 96 % of control; (dose: 200.0 mg/kg/injection, schedule: Q01DX001 (ip), vehicle: saline with Tween-80) 98 % of control; under setting [9], 87 % of control and 89 % of control. For the same compound, the T/C runs as follows: (dose: 200.0 mg/kg/injection, schedule: Q04DX002 (ip), vehicle: saline with Tween-80) 97 % of control; (dose: 200.0 mg/kg/injection, schedule: Q04DX003 (ip), vehicle: saline with Tween-80) 86 % of control; (dose: 400.0 mg/kg/injection, schedule: Q01DX001 (ip), vehicle: saline with Tween-80) 87 % of control; (dose: 400.0 mg/kg/injection, schedule: Q01DX009 (ip), vehicle: saline with Tween-80) 91 % of control; (dose: 400.0 mg/kg/injection, schedule: Q04DX002 (ip), vehicle: saline with Tween-80) 94 % of control.

With `CCCCN(C)N=Nc1ccccc1C(=O)O`, the T/C was 100 % of control (dose: 6.25 mg/kg/injection, schedule: Q01DX009 (ip), vehicle: other); 103 % of control (dose: 12.5 mg/kg/injection, schedule: Q01DX009 (ip), vehicle: other); 108 % of control (dose: 25.0 mg/kg/injection, schedule: Q01DX009 (ip), vehicle: other); 110 % of control (dose: 50.0 mg/kg/injection, schedule: Q01DX009 (ip), vehicle: other); 123 % of control under setting [10].

Take `CC1CNC(=S)O1` (stereo not given): the T/C runs as follows: under setting [11], 96 % of control; under setting [12], 98 % of control; under setting [13], 101 % of control; under setting [14], 108 % of control.

Turning to `COC(=O)c1ccc([N+](=O)[O-])c(OC)c1`, the T/C under setting [15] is 91 % of control; the T/C (dose: 75.0 mg/kg/injection, schedule: Q04DX003 (ip), vehicle: saline) was 94 % of control; the T/C under setting [16] was 91 % of control; the T/C (dose: 150.0 mg/kg/injection, schedule: Q04DX003 (ip), vehicle: saline) is 108 % of control; the T/C (dose: 300.0 mg/kg/injection, schedule: Q01DX001 (ip), vehicle: saline) is 93 % of control; the T/C (dose: 300.0 mg/kg/injection, schedule: Q04DX003 (ip), vehicle: saline) was 101 % of control.

For `CC(C)OC(=O)COc1ccc(Cl)cc1`, the T/C runs as follows: under setting [1], 101 % of control and 102 % of control; under setting [2], 101 % of control and 105 % of control; under setting [3], 102 % of control; (dose: 200.0 mg/kg/injection, schedule: Q01DX009 (ip), vehicle: carboxymethylcellulose (CMC)) 101 % of control and 91 % of control; under setting [4], 102 % of control and 106 % of control; under setting [5], 104 % of control. Moreover, the T/C was 108 % of control and 88 % of control under setting [6]; 98 % of control and 108 % of control under setting [7]; 101 % of control (dose: 400.0 mg/kg/injection, schedule: Q04DX003 (ip), vehicle: carboxymethylcellulose (CMC)).

`COc1ccc(CCNCC(O)CSc2cccc(C)c2)cc1OC` (stereo not given): the T/C is, setting by setting: under setting [15], 101 % of control; under setting [16], 95 % of control.

With `Cc1c2cnccc2c(C)c2c1c1ccccc1n2C`, the T/C was 109 % of control (dose: 29.0 mg/kg/injection, schedule: Q01DX Z (ip), vehicle: saline); 123 % of control (dose: 44.0 mg/kg/injection, schedule: Q01DX Z (ip), vehicle: saline); 120 % of control (dose: 66.0 mg/kg/injection, schedule: Q01DX Z (ip), vehicle: saline); 112 % of control (dose: 66.0 mg/kg/injection, schedule: Q01DX Z (oral), vehicle: saline); 121 % of control (dose: 100.0 mg/kg/injection, schedule: Q01DX Z (ip), vehicle: saline); 115 % of control (dose: 100.0 mg/kg/injection, schedule: Q01DX Z (oral), vehicle: saline). Further, the T/C is 155 % of control (dose: 150.0 mg/kg/injection, schedule: Q01DX Z (oral), vehicle: saline) and 171 % of control (dose: 225.0 mg/kg/injection, schedule: Q01DX Z (oral), vehicle: saline).

Regarding `NC(N)=N/N=C(\C=C\C=C(c1ccc(Cl)cc1)c1ccc(Cl)cc1)c1ccc(Cl)cc1`, the T/C is 95 % of control (dose: 12.5 mg/kg/injection, schedule: Q04DX003 (ip), vehicle: saline); 95 % of control (dose: 25.0 mg/kg/injection, schedule: Q04DX003 (ip), vehicle: saline); 91 % of control under setting [11].

For `COc1ccc(NC(=S)Nc2ccccn2)cc1`, the T/C by setting is: under setting [10], 106 % of control; under setting [12], 101 % of control; (dose: 200.0 mg/kg/injection, schedule: Q01DX009 (ip), vehicle: other) 97 % of control; under setting [13], 87 % of control; (dose: 400.0 mg/kg/injection, schedule: Q01DX009 (ip), vehicle: other) 103 % of control; under setting [14], 98 % of control.

Turning to `CC1CN=C(c2ccc(O)c(O)c2O)S1` (stereo not given), the T/C (dose: 75.0 mg/kg/injection, schedule: Q04DX002 (ip), vehicle: saline with Tween-80) was 101 % of control; the T/C (dose: 150.0 mg/kg/injection, schedule: Q04DX002 (ip), vehicle: saline with Tween-80) was 101 % of control; the T/C (dose: 300.0 mg/kg/injection, schedule: Q04DX002 (ip), vehicle: saline with Tween-80) was 93 % of control.

In the case of `Cc1c2oc3c(C)ccc(C(=O)NCCC(C)C)c3nc-2c(C(=O)NCCC(C)C)c(N)c1=O`, the T/C (dose: 10.0 mg/kg/injection, schedule: Q01DX001 (ip), vehicle: carboxymethylcellulose (CMC)) is 93 % of control.

On to `CCSC(SCC)C(NC(C)=O)C1OC(C)(C)OC1C(O)CO` (stereo not given), for which the T/C was 97 % of control (dose: 50.0 mg/kg/injection, schedule: Q01DX001 (ip), vehicle: saline); 103 % of control (dose: 100.0 mg/kg/injection, schedule: Q01DX001 (ip), vehicle: saline); 103 % of control (dose: 200.0 mg/kg/injection, schedule: Q01DX001 (ip), vehicle: saline); 103 % of control (dose: 400.0 mg/kg/injection, schedule: Q01DX001 (ip), vehicle: saline).
